Experiments:
human IRAK4 = target: T1, human IRAK4 (Homo sapiens, UniProt Q9NWZ3); assay: IRAK4 MSA (Mobility-Shift Assay) at Km ATP; type: biochemical; details: GST-IRAK4 1 nM, ATP 37 μM (Km); read-out: IC50 for inhibiting human IRAK4 kinase
T1 construct: purchased Cama (so in the source)
T1 sequence (Q9NWZ3 1-460): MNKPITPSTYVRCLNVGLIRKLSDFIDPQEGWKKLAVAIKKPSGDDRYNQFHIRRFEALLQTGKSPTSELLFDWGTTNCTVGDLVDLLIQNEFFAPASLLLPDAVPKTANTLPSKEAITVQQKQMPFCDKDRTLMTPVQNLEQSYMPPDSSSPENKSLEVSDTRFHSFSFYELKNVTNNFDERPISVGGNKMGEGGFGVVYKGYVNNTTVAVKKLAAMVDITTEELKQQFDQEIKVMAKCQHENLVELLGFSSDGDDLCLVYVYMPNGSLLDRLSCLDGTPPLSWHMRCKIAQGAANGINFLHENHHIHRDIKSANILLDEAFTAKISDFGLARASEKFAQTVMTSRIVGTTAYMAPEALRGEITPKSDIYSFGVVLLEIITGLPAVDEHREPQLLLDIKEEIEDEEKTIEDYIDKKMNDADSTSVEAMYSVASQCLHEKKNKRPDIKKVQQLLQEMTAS
Method: A recombinant fusion protein of N-terminal GST (glutathione-S-transferase) and human IRAK4 was used as enzyme (GST-IRAK4, kinase IRAK4 (Cama)) at a final concentration of 1 nM; ATP (Sigma) was at a final concentration of 37 μM; the substrates used for the kinase reaction were a 5-FAM (5-carboxyfluorescein)-labeled polypeptide (5-FAM-[…]-COOH) and a substrate peptide FAM-P8 (GL Biochem) at final concentrations of […].
In this assay, 500 μM solutions of the compounds were prepared in 100% DMSO, and serially 4-fold diluted to the 10th concentration gradient with 100% DMSO, followed by a 10-fold dilution in the compound buffer (50 mM HEPES. pH 7.5, 0.00015% Brij-35) to give intermediate dilutions of the compounds at a final concentration of 10 μM-0.04 nM containing 10% DMSO respectively, 5 μL of the dilutions were transferred into a black 384-well plate respectively.
IRAK4 was diluted to 2.5 nM in the kinase buffer (50 mM HEPES, pH 7.5, 0.00015% Brij-35, 2 mM DTT). 10 μL of the IRAK4 dilution was transferred to the 384-well plate and co-incubated with the compound for 10-15 min.
The substrate and ATP were diluted to 12.5 μM and 92.5 μM with reaction buffer (50 mM HEPES, pH 7.5, 0.00015% Brij-35, 10 mM MgCl2), respectively. 10 μL of the dilutions were transferred to a 384-well plate and incubated at 28° C. for 1 h respectively. The reaction was terminated by adding 25 μL of 50 mM EDTA to the 384-well plate.
The inhibition rates of IRAK4 by the compounds were calculated by measuring the rate of phosphorylated substrate using a Caliper EZ Reader (PerkinElmer) and the IC50 values were calculated by XL-fit software.

[1] = system: TNF-α release in LPS-induced Balb/c female mice; assay: Inhibition of TNF-α release in LPS-induced Balb/c female mice; type: in vivo, mouse; set-up: concentration or dose not given beside the values; details: oral gavage 5 h before LPS induction, serum 1.5 h after stimulation
Method: In the normal control groups, the animals received an intraperitoneal injection of normal saline (10 mL/kg) and in the model groups, the animals received LPS stimulation (Sigma CAT #L2630, i.p., 10 mL/kg, 0.2 mg/kg). During the assay, to the test compounds, DMSO, Solutol and 10 mM PBS were sequentially added to prepare a solution or suspension of required concentration for administration. For the vehicle, DMSO, Solutol and 10 mM PBS were mixed in a volume ratio of 5:15:80. In each of the groups, the animals were administered through oral gavage (10 mL/kg) 5 h before LPS (or saline) stimulation at predetermined doses, and euthanized with CO2 at 1.5 h after the stimulation for cardiac blood collection. The whole blood was not anticoagulated, incubated in wet ice for 1.5 h, and centrifuged at 2000×g at 4° C. for 10 min to separate the serum. The serum was frozen at −80° C. for TNF-α assay. Quantification of the TNF-α was done with TNF-α ELISA kit according to the manufacturer's instruction.

[2] = Stability in human liver microsomes; type: in vitro ADME; details: for half-life at 1 μM: pH 7.4, ∞ = no obvious metabolism found during assay, read-out: Stability test in liver microsomes t1/2, Human
Method: (§1) 1. Preparation of buffer C:
(§2) Buffer A: 1.0 L of 0.1 M monopotassium phosphate buffer (containing 1.0 mM EDTA);
(§3) Buffer A: 1.0 L of 0.1 M dipotassium phosphate buffer (containing 1.0 mM EDTA);
(§4) Buffer C: Buffer A was added to 700 mL of buffer B until pH reached 7.4.
(§5) The test compound and the reference were separately dissolved in DMSO to give 10 mM stocks.
(§6) 500 μM solution: 10 μL of 10 mM stock solution was added to 190 μL of acetonitrile;
(§7) 1.5 μM dosing solution (in liver microsome solution):
(§8) 18.75 μL of 20 mg/mL liver microsomes were added to 479.75 μL of buffer C, followed by 1.5 μL of 500 μM solution. The mixture was gently shaken to mix well.
(§9) NADPH was weighed, to which an appropriate amount of buffer C was added to prepare a 6 mM NADPH solution.
(§10) 5. 30 μL of 1.5 μM dosing solution was added to wells of a 96-well plate set for different time points (0 min, 5 min, 15 min, 30 min, 45 min) in duplicate.
(§11) 6. Preparation of 0 min samples: 135 μL of acetonitrile (containing internal standard) was added to the 0 min wells, followed by 15 μL of 6 mM NADPH solution.
(§12) 7. The 96-well plate containing 1.5 μM dosing solution and NADPH solution were preheated for 5 min in a water bath at 37° C.
(§13) 8. 15 μL of pre-heated 6 mM NADPH solution was added to wells set for 5 min, 15 min, 30 min and 45 min to start the reaction.
(§14) 9. At time points of 5 min, 15 min, 30 min and 45 min, the reaction was terminated by adding 135 μL of acetonitrile (containing internal standard). The mixtures were vortexed for 10 min and centrifuged at 5594×g for 15 min (Thermo Multifuge×3R).
(§15) 10. 50 μL of the supernatant was transferred to wells of a 96-well plate containing 50 μL of water. The samples were mixed and finally subjected to LC-MS/MS analysis.

[3] = Stability in rat liver microsomes; type: in vitro ADME; details: for half-life at 1 μM: pH 7.4, ∞ = no obvious metabolism found during assay, read-out: Stability test in liver microsomes t1/2, Rat; for Stability test in liver microsomes t1/2, Rat: ∞ = no obvious metabolism found during assay
Method: as §1, §2, §3, §4, §5, §6, §7, §8, §9, §10, §11, §12, §13, §14, §15

[4] = Stability in mouse liver microsomes; type: in vitro ADME; details: for half-life at 1 μM: pH 7.4, ∞ = no obvious metabolism found during assay, read-out: Stability test in liver microsomes t1/2, Mouse
Method: as §1, §2, §3, §4, §5, §6, §7, §8, §9, §10, §11, §12, §13, §14, §15

[5] = ∞ = no obvious metabolism found during assay

| SMILES | IC50 (human IRAK4) [nM] | Inhibition rate of TNF-α [1] [%] | half-life at 1 μM [2] [min] | half-life at 1 μM [3] [min] | half-life at 1 μM [4] [min] | Stability test in liver microsomes t1/2, Rat [3] | Stability test in liver microsomes t1/2, Human [2, 5] | Stability test in liver microsomes t1/2, Mouse [4, 5] |
| --- | --- | --- | --- | --- | --- | --- | --- | --- |
| CN(C)c1cc2nn([C@H]3C[C@H](C(C)(C)O)C3)cc2cc1NC(=O)c1cccc(C(F)(F)F)n1 [MY-004-089] | 6.8 | 91.27 | 2140 | 292 | 564 | – | – | – |
| COc1cc2nn([C@H]3CC[C@](C)(O)CC3)cc2cc1NC(=O)c1cccc(C(F)(F)F)n1 [MY-004-126-1] | 2.7 | 94.43 | 469 | 398 | 354 | – | – | – |
| COc1cc2nn([C@H]3CC[C@@](C)(O)CC3)cc2cc1NC(=O)c1cccc(C(F)(F)F)n1 [MY-004-126-2] | 1 | 94.11 | 25700 | – | 802 | ∞ | – | – |
| COc1cc2nn([C@H]3CC[C@H](O)CC3)cc2cc1NC(=O)c1cccc(C(F)(F)F)n1 [MY-004-127-1] | 5.3 | 89.29 | 770 | 306 | 46100 | – | – | – |
| CN(C)c1cc2nn([C@H]3CC[C@H](O)CC3)cc2cc1NC(=O)c1cccc(C(F)(F)F)n1 [MY-004-153] | 1.9 | 88.42 | – | 250 | 283 | – | ∞ | – |
| CC(C)(O)c1cc2nn([C@H]3CC[C@](C)(O)CC3)cc2cc1NC(=O)c1cccc(C(C)(F)F)n1 [MY-004-165] | 4.2 | 88.99 | 3240 | – | – | ∞ | – | ∞ |

From patent publication US20220204473A1, “COMPOUND AS IRAK INHIBITOR” (SHANGHAI MEIYUE BIOTECH DEVELOPMENT CO., LTD., priority 2018, published 2022)
